Laboratory results: patent US7420043B2, “Reagents for detecting efavirenz” (priority 2003, dated 2008)
Like-named read-outs stand apart in the source and are kept apart here.

Legend:
[1] = system: monoclonal antibody EFA 97.1; test: Cross-reactivity assay (competitive ELISA, ED50 ratio); format: binding, mouse; settings: ED50 of efavirenz divided by ED50 of the drug, times 100
Source text: Supernatants were subjected to serial dilutions and retested in the ELISA screen above omitting the competitive inhibition with free drug. The dilution providing for approximately a 50% reduction from the maximum OD was chosen for proceeding to cross-reactivity testing. This comprised repeating the preceding assay with the antibody at the chosen dilution and in the presence of varying concentrations of different drugs. FIG. 8 presents the results of such a determination.

[2] = cited from earlier work
HIV = settings: cited from earlier work
[3] = Physician's Desk Reference; cited from earlier work

| SMILES | % Cross-reactivity [1] | further results |
| --- | --- | --- |
| CC(C)c1nc(CN(C)C(=O)N[C@H](C(=O)N[C@@H](Cc2ccccc2)C[C@H](O)[C@H](Cc2ccccc2)NC(=O)OCc2cncs2)C(C)C)cs1 [ritonavir] | 0% | – |
| O=C1Nc2ccc(Cl)cc2[C@@](C#CC2CC2)(C(F)(F)F)O1 [efavirenz] | 100% | CNS toxicity frequency, high versus mid plasma levels ([2]; >4000 μg/L compared with 1000-4000 μg/L): approximately three times more frequent; patients discontinuing therapy because of severity or persistence of CNS side effects ([2]; patients receiving efavirenz): about 4%; patients reporting CNS side effects (dizziness, hallucinations, nightmares, insomnia) ([2]; patients receiving efavirenz): 20-40%; virological failure, % of patients (HIV; patients with low plasma levels of efavirenz, <1000 μg/L, 85 total patients): 50%; virological failure, % of patients (HIV; plasma levels 1000-4000 μg/L or more than 4000 μg/L): 18-22%; peak levels [3]: 12.9 µM |
| Cc1cccc(C)c1OCC(=O)N[C@@H](Cc1ccccc1)[C@@H](O)C[C@H](Cc1ccccc1)NC(=O)[C@H](C(C)C)N1CCCNC1=O [lopinavir] | 0% | – |
| Cc1cn([C@H]2C=C[C@@H](CO)O2)c(=O)[nH]c1=O [2′,3′-didehydro-3′-deoxythymidine] | 0% | – |
| CC(C)Nc1cccnc1N1CCN(C(=O)c2cc3cc(NS(C)(=O)=O)ccc3[nH]2)CC1 [delaviridine] | 0% | – |
| CC(C)(C)NC(=O)[C@@H]1CN(Cc2cccnc2)CCN1C[C@@H](O)C[C@@H](Cc1ccccc1)C(=O)N[C@H]1c2ccccc2C[C@H]1O [indinavir] | 0% | – |
| Cc1ccnc2c1NC(=O)c1cccnc1N2C1CC1 [nevirapine] | 0% | – |
| Cc1cn([C@H]2C[C@H](N=[N+]=[N-])[C@@H](CO)O2)c(=O)[nH]c1=O [3′-azido-3′-deoxythymidine] | 0% | – |
| Cc1c(O)cccc1C(=O)N[C@@H](CSc1ccccc1)[C@H](O)CN1C[C@H]2CCCC[C@H]2C[C@H]1C(=O)NC(C)(C)C [nelfinavir] | 0% | – |
| CC(C)CN(C[C@@H](O)[C@H](Cc1ccccc1)NC(=O)O[C@H]1CCOC1)S(=O)(=O)c1ccc(N)cc1 [amprenavir] | 0% | – |
| CC(C)(C)NC(=O)[C@@H]1C[C@@H]2CCCC[C@@H]2CN1C[C@@H](O)[C@H](Cc1ccccc1)NC(=O)[C@H](CC(N)=O)NC(=O)c1ccc2ccccc2n1 [saquinavir] | 0% | – |
| COC(=O)N[C@H](C(=O)N[C@@H](Cc1ccccc1)[C@@H](O)CN(Cc1ccc(-c2ccccn2)cc1)NC(=O)[C@@H](NC(=O)OC)C(C)(C)C)C(C)(C)C [atazanavir] | 0% | – |
